Numbered stars: 1 amine (or outer) side, 2 acyl side, 3 side chain; on linkers, the order of the positions; unused ones are H or OH. Bridge positions count the residues as written; N and C are the ends. Square brackets hold non-standard residues; d marks the D form. Peptide text beside a SMILES is read from it. I, II: the chains in the order shown. Actinocin(9to1) = Cc1c2oc3c(C)ccc(C(=O)[*:1])c3nc-2c(C(=O)[*:2])c(N)c1=O; NMeV = CN[C@H](C(=O)O)C(C)C; Sar = CNCC(=O)O
How the values were obtained:
[1] = target: T1, Telomerase reverse transcriptase (Homo sapiens, UniProt O14746); experiment: Inhibitory activity against telomerase at 50 uM concentration (Compound released from DNA/DNA heteroduplex derivatized resin [sequence (TTAGGG)3)
[2] = target: T1, Telomerase reverse transcriptase; experiment: Inhibitory activity against telomerase at 50 uM concentration (Compound released from RNA/DNA heteroduplex derivatized resin [sequence (TTAGGG)3)
[3] = target: T1, Telomerase reverse transcriptase; experiment: Inhibitory activity against telomerase at 50 uM concentration (Compound released from underivatized resin
[4] = target: T1, Telomerase reverse transcriptase; experiment: Inhibitory activity against telomerase (Compound released from underivatized resin
[5] = target: T1, Telomerase reverse transcriptase; experiment: Inhibitory activity against telomerase (Compound released from DNA/DNA heteroduplex derivatized resin [sequence (TTAGGG)3)
[6] = target: T1, Telomerase reverse transcriptase; experiment: Inhibitory activity against telomerase (Compound released from RNA/DNA heteroduplex derivatized resin [sequence (TTAGGG)3)

T1 sequence (O14746 whole entry): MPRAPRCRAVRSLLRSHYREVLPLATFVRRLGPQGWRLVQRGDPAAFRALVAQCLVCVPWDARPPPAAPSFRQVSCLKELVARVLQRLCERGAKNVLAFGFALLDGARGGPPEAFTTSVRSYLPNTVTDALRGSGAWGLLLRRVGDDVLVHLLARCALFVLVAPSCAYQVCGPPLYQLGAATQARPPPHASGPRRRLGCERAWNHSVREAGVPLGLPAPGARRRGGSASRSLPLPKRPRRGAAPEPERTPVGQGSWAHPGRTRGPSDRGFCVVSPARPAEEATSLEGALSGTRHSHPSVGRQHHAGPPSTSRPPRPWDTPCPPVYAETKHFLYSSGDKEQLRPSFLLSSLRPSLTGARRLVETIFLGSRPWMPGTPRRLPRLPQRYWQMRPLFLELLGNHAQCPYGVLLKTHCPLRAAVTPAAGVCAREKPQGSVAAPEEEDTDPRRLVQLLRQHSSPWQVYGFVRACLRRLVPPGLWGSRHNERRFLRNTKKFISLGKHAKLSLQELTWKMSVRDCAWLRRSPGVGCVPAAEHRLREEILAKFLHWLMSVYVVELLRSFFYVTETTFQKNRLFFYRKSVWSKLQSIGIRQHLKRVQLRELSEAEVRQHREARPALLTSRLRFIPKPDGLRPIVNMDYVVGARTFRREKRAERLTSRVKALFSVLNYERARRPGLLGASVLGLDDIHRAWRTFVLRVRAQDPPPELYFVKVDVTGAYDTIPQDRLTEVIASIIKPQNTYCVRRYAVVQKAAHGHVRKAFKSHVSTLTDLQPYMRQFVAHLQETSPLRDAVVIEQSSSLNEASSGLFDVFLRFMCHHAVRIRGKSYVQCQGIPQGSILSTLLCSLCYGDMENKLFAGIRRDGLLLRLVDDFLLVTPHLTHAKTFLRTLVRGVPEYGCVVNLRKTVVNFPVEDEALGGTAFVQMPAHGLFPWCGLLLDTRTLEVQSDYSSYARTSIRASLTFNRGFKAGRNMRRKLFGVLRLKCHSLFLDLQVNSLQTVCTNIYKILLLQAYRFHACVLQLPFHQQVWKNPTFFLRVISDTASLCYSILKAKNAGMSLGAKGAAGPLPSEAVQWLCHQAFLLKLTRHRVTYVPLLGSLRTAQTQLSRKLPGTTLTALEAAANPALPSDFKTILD

| inhibition [1] | inhibition [2] | inhibition [3] | IC50 [4] | IC50 [5] | IC50 [6] | SMILES |
| --- | --- | --- | --- | --- | --- | --- |
|  |  |  | 8.2 µM | 8.2 µM | 8.2 µM | CCOc1ccc2nc3cc(N)ccc3c(N)c2c1 [ETHACRIDINE] |
| < 50% | < 50% | < 50% |  |  |  | COc1cccc2c1C(=O)c1c(O)c3c(c(O)c1C2=O)C[C@@](O)(C(C)=O)C[C@@H]3O[C@H]1C[C@H](N)[C@H](O)[C@H](C)O1 |
|  |  |  | 12.2 µM | 12.2 µM | 12.2 µM | CN(C)c1ccc2cc3ccc(N(C)C)cc3nc2c1 [ACRIDINE ORANGE] |
|  |  |  | 21.7 µM | 21.7 µM | 21.7 µM | Cc1cc2cc3cc(C)c(N)cc3nc2cc1N |

More lines, now with the values behind:

| SMILES | inhibition [1] | inhibition [2] | inhibition [3] | IC50 [4] | IC50 [5] | IC50 [6] |
| --- | --- | --- | --- | --- | --- | --- |
| Cc1c2oc3c(C)ccc(C(=O)N[C@@H]4C(=O)N[C@H](C(C)C)C(=O)N5CCC[C@H]5C(=O)N(C)CC(=O)N(C)[C@@H](C(C)C)C(=O)O[C@@H]4C)c3nc-2c(C(=O)N[C@@H]2C(=O)N[C@H](C(C)C)C(=O)N3CCC[C@H]3C(=O)N(C)CC(=O)N(C)[C@@H](C(C)C)C(=O)O[C@@H]2C)c(N)c1=O (I: T[dV]P[Sar][NMeV] / II: T[dV]P[Sar][NMeV]; ester I:1-I:C, II:1-II:C; linker I:N-II:N via Actinocin(9to1)) | < 50% | < 50% | < 50% |  |  |  |
| Cc1c2oc3c(C)c(N)cc(C(=O)N[C@@H]4C(=O)N[C@H](C(C)C)C(=O)N5CCC[C@H]5C(=O)N(C)CC(=O)N(C)[C@@H](C(C)C)C(=O)O[C@@H]4C)c3nc-2c(C(=O)N[C@@H]2C(=O)N[C@H](C(C)C)C(=O)N3CCC[C@H]3C(=O)N(C)CC(=O)N(C)[C@@H](C(C)C)C(=O)O[C@@H]2C)c(N)c1=O | < 50% | < 50% | < 50% |  |  |  |
| COc1cccc2c1C(=O)c1c(O)c3c(c(O)c1C2=O)C[C@@](O)(C(=O)CO)C[C@@H]3O[C@H]1C[C@H](N)[C@H](O)[C@H](C)O1 | < 50% | < 50% | < 50% |  |  |  |
| CC[n+]1c(-c2ccccc2)c2cc(N)ccc2c2ccc(N)cc21 [HOMIDIUM BROMIDE] |  |  |  | 3.3 µM | 3.3 µM | 3.3 µM |

Source: ChEMBL document CHEMBL1133811, “Small molecule/nucleic acid affinity chromatography: application for the identification of telomerase inhibitors which target its key RNA/DNA heteroduplex” (Bioorg Med Chem Lett, 2001)
